From publication PMC2826609 (Peptides, 2009) come the findings set out here.

Test [1] addresses Aedes aegypti allatostatin-C receptor AeAS-CrA (Aedes aegypti, UniProt A0A411JKC3). The format is cell-based.
For test [2], the target named is Aedes aegypti allatostatin-C receptor AeAS-CrB (Aedes aegypti, UniProt A0A411JKA7). Type of test: cell-based.

Positions of bridges follow the written chain, without caps; N, C: chain ends. Residues, ends and D or L forms follow the SMILES beside them.

As usually defined, the EC50 is the concentration that produces a half-maximal response. A higher EC50 goes with a less potent agent. For the compound `CC[C@H](C)[C@H](NC(=O)[C@@H](N)CCC(N)=O)C(=O)N[C@@H](CCCNC(=N)N)C(=O)N[C@@H](Cc1ccc(O)cc1)C(=O)N[C@@H](CCCNC(=N)N)C(=O)N[C@@H](CCC(N)=O)C(=O)N[C@H]1CSSC[C@@H](C(=O)N[C@@H](Cc2ccccc2)C(=O)O)NC(=O)[C@H](CO)NC(=O)[C@H]([C@@H](C)CC)NC(=O)[C@@H]2CCCN2C(=O)[C@H](CC(N)=O)NC(=O)[C@H](Cc2ccccc2)NC(=O)[C@H](Cc2ccc(O)cc2)NC1=O` [AS-C] (H-QIRYRQCYFNPISCF-OH; disulfide 7-14), the EC50 turned out to be 89 ± 18.5 nM in test [1] and 27.7 ± 7.2 nM in test [2].

In the case of APFRNSEMMTARGF [AT], in test [1] (AeAS-CrA, HEK293T/Gα16gust44 cells, results not shown), the “FLIPR signal, peptide selectivity (AeAS-CrA)” value is listed as “no signal was detected”. In test [2] (AeAS-CrB, HEK293T/Gα16gust44 cells, results not shown), the “FLIPR signal, peptide selectivity (AeAS-CrB)” value is “no signal was detected”.
